From patent US3974184A, “Microbial production of certain isoflavones” (Zaidan Hojin Biseibutsu Kagaku Kenkyu Kai, priority 1973, dated 1976)
Read-outs that look alike come from different tables or passages of the source.

Columns and labels:
[1] = tested on: fungi; assay: Inhibiting action against growth of fungi; assay type: cell-based; conditions: at 100 .nu./cc
[2] = Solubility; assay type: physicochemical
Excerpt: Now the extractive purification of the compounds (I), (II) and (III) will be described. […] These compounds are extracted from the culture filtrate under acidic conditions with butanol, butyl acetate, etc. or also from the fungus solid body (mycelium) with methanol, acetone, etc. The filtrate from the mycelial extract is concentrated by distillation under diminished pressure and the concentrated liquid, after having been adjusted to be acidic, is subjected to an extraction operation with butyl acetate or butanol. The thusly extracted liquid is mixed with the solution of butyl acetate or butanol separately extracted from the culture liquid, and then concentrated to dryness under diminished pressure.

[3] = tested on: rats; assay: Toxicity in rats, administration into the abdominal cavity; assay type: in vivo; conditions: 200 mg./kg., abdominal cavity of rats, 25% aqueous dimethyl sulfoxide
Excerpt: Now the compounds (I), (II) and (III) will be described with respect to their biological properties.

[4] = tested on: spontaneously hypertensive rats; assay: Blood pressure lowering action in spontaneously hypertensive rats; assay type: in vivo; conditions: for blood pressure lowering action: abdominal cavity; for blood pressure lowering: in words
Excerpt: The inventors also examined the blood pressure lowering action of the compounds (I), (II) and (III) by administering them in the abdominal cavity of spontaneously hypertensive rats.

[5] = target: T1, catechol-O-methyl transferase (COMT) (Rattus norvegicus, UniProt P22734); assay: Inhibition of catechol-O-methyl transferase (formation of tritium metanephrine); assay type: biochemical
T1 sequence (P22734 1-221 isoform P22734-2): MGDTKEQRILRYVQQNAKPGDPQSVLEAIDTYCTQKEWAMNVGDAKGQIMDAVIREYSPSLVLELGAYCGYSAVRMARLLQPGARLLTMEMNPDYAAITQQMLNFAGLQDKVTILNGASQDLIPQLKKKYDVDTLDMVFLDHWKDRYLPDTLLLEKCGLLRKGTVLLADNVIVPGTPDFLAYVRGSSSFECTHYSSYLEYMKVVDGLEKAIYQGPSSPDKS
Experimental: The compounds (I), (II) and (III) can be determined by measuring inhibition of COMT. The activity of COMT is measured in accordance with the method reported by B. Nikodejevic et al. (Ref. "The Journal of Pharmacology and Experimental Therapeutics", Vol. 174, pp. 83-93, by B. Nikodejevic et al., 1970). 0.5 cc total volume of reaction liquid is prepared from 0.125 cc of water, 0.05 cc of 0.1 mole phosphate buffer solution (pH 8.0), 0.1 cc of 0.1 mole magnesium chloride solution, 0.05 cc. of 0.05 mole adrenaline solution, 0.075 cc of 0.5 millimole tritium-8-adenosyl methionine aqueous solution (2.2 × 10^5 cpm), 0.05 cc of sample solution and 0.05 cc of enzyme solution. These solutions are mixed together at 0° C. and, after reacting for 20 minutes at 37° C., 1 cc of 0.5 mole boric acid buffer solution (pH 10.0) is added to stop the reaction. Then, tritium metanephrine (^3 H-metanephrine) wherein the meta-hydroxyl group has been methylated is extracted with a solvent mixture such as toluene-isoamyl alcohol (3:2). A quantity of solvent portion is then sampled and its radioactivity is measured by use of a liquid scintillation counter. The thusly obtained measurement of radioactivity tells the quantity of formed metanephrine, which in turn permits one to determine the inhibition.

[6] = isolated compounds, read-out: concentration inhibiting the activity of COMT by 50% (converted)
[7] = powders from silica gel fractions, Example 1, read-out: concentration showing 50% inhibition against COMT (converted)

| SMILES | inhibiting action against the growth of fungi [1] | solubility in alkaline water, methanol, ethanol and acetone [2] | solubility in butanol, ethyl acetate and butyl acetate [2] | toxicity [3] | blood pressure lowering action ([4]; 12.5 mg./kg., after 1 hour) [%] | blood pressure lowering action ([4]; 12.5 mg./kg., after 3 hours) [%] | blood pressure lowering action ([4]; 12.5 mg./kg., after 6 hours) [%] | blood pressure lowering action ([4]; 12.5 mg./kg., after 24 hours) [%] | blood pressure lowering action ([4]; 50 mg./kg., after 1 hour) [%] | blood pressure lowering action ([4]; 50 mg./kg., after 3 hours) [%] | blood pressure lowering action ([4]; 50 mg./kg., after 6 hours) [%] | blood pressure lowering action ([4]; 50 mg./kg., after 24 hours) [%] | blood pressure lowering [4] | IC50 [5, 6] [µM] | IC50 [5, 7] [µM] | blood pressure lowering action ([4]; 50 mg./kg., after 48 hours) [%] | other results |
| --- | --- | --- | --- | --- | --- | --- | --- | --- | --- | --- | --- | --- | --- | --- | --- | --- | --- |
| COc1ccc(-c2coc3cc(O)c(OC)c(O)c3c2=O)cc1O [Compound (I), 3',5,7-trihydroxy-4',6-dimethoxy-isoflavone] | no inhibiting action | soluble | slightly soluble | no toxicity | 13.6 | 10.7 | 15.8 | 7.8 | 20.8 | 16.4 | 35.0 | 3.8 | lowered the blood pressure | – | – | – | – |
| COc1ccc(-c2coc3c(OC)c(O)cc(O)c3c2=O)cc1O [Compound (II), 3',5,7-trihydroxy-4',8-dimethoxy-isoflavone] | no inhibiting action | soluble | slightly soluble | no toxicity | 10.4 | 34.4 | 32.8 | 18.0 | 22.3 | 35.9 | 35.3 | 23.9 | lowered the blood pressure | 15.1 | 236 | 16.3 | blood pressure lowering action ([4]; 3.1 mg./kg., after 1 hour): 21.0%; blood pressure lowering action ([4]; 3.1 mg./kg., after 3 hours): 26.3%; blood pressure lowering action ([4]; 3.1 mg./kg., after 6 hours): 28.0%; blood pressure lowering action ([4]; 3.1 mg./kg., after 24 hours): 22.0%; blood pressure lowering action ([4]; 3.1 mg./kg., after 48 hours): 13.4%; blood pressure lowering action ([4]; 12.5 mg./kg., after 48 hours): 18.0% |
| COc1ccc(-c2coc3c(OC)c(O)c(OC)cc3c2=O)cc1O [Compound (III), 3',7-dihydroxy-4',6,8-trimethoxy-isoflavone] | no inhibiting action | soluble | slightly soluble | no toxicity | – | – | – | – | 11.9 | 13.0 | 17.3 | 7.0 | lowered the blood pressure | 0.581 | 14.5 | 3.0 | selectivity for COMT against the other enzymes ([5]; in words, other enzymes: tyrosine hydroxylase, dopamin-β-hydroxylase, DOPA decarboxylase, histidine decarboxylase): inhibiting action only against COMT and not against the other enzymes |
